pIC50: −log10 of the molar value.

One experiment addresses T1, PDK-1 (Homo sapiens, UniProt O15530).
T1 sequence (O15530 1-556): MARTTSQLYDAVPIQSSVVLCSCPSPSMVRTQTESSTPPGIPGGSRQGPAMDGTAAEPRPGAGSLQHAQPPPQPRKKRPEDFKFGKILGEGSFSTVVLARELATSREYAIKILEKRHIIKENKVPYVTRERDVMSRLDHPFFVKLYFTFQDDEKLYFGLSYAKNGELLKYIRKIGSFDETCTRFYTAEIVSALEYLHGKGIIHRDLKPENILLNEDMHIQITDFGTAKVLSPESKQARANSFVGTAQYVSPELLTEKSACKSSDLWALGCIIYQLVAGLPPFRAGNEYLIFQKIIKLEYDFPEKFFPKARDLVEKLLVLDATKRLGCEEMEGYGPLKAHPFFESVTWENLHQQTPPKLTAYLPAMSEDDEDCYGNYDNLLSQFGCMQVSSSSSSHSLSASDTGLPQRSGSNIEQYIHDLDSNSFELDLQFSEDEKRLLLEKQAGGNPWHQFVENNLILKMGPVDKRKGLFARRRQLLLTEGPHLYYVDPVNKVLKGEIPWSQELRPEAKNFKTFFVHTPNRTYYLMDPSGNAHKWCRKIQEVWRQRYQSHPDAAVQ
The experiment in a line: PDK-1 kinase inhibition ELISA assay (phosphorylation of His6-tagged SGK1 S422D by PDK-1).
Details: not given
Type of experiment: biochemical.
Consider `COc1cccc(Nc2cncc(-c3cc4c(cnc5cc(OC)c(OC)cc54)c(N)n3)c2)c1` [Ib-176, 8,9-dimethoxy-2-{5-[(3-methoxyphenyl)amino]pyridin-3-yl}benzo[c][2,7]naphthyridin-4-amine], for which the pIC50 was 6.36.
Still for that read-out and setting: the result for `COc1ccc(Nc2cncc(-c3cc4c(cnc5cc(OC)c(OC)cc54)c(N)n3)c2)cc1` [Ib-177, 8,9-dimethoxy-2-{5-[(4-methoxyphenyl)amino]pyridin-3-yl}benzo[c][2,7]naphthyridin-4-amine] reads 6.42.

Staying with this experiment, now noted: PDK-1 ELISA, Table 11; read-out: Average IC50.
Regarding `COc1cc2ncc3c(N)nc(-c4cncc(OC[C@@H](N)COC5=NCCN5)c4)cc3c2cc1OC` [Ib-148, 2-(5-{[(2R)-2-amino-3-(4,5-dihydro-1H-imidazol-2-yloxy)propyl]oxy}pyridin-3-yl)-8,9-dimethoxybenzo[c][2,7]naphthyridin-4-amine], the pIC50 is 8.05.
Same read-out and setting: the result for `COc1cc2ncc3c(N)nc(-c4cncc(OC[C@@H](N)COc5ncccn5)c4)cc3c2cc1OC` [Ib-149, 2-(5-{[(2R)-2-amino-3-(pyrimidin-2-yloxy)propyl]oxy}pyridin-3-yl)-8,9-dimethoxybenzo[c][2,7]naphthyridin-4-amine] reads 8.15.
Same read-out and setting: for `COc1cc2ncc3c(N)nc(-c4cncc(OC[C@@H](N)COc5nc6ccccc6s5)c4)cc3c2cc1OC` [Ib-150, 2-(5-{[(2R)-2-amino-3-(1,3-benzothiazol-2-yloxy)propyl]oxy}pyridin-3-yl)-8,9-dimethoxybenzo[c][2,7]naphthyridin-4-amine] the value was 8.22; for `COc1cc2ncc3c(N)nc(-c4cncc(OC[C@@H](N)COc5ccncc5)c4)cc3c2cc1OC` [Ib-151, 2-(5-{[(2S)-2-amino-3-(pyridin-4-yloxy)propyl]oxy}pyridin-3-yl)-8,9-dimethoxybenzo[c][2,7]naphthyridin-4-amine], 8.00.
Still for that read-out and setting: the result for `COc1cc2ncc3c(N)nc(-c4cncc(OC[C@@H](N)COc5cc(C)ccn5)c4)cc3c2cc1OC` [Ib-152, 2-[5-({(2R)-2-amino-3-[(4-methylpyridin-2-yl)oxy]propyl}oxy)pyridin-3-yl]-8,9-dimethoxybenzo[c][2,7]naphthyridin-4-amine] reads 8.05; that for `COc1cc2ncc3c(N)nc(-c4cncc(OC[C@@H](N)COc5ncc(Cl)cc5Cl)c4)cc3c2cc1OC` [Ib-153, 2-[5-({(2R)-2-amino-3-[(3,5-dichloropyridin-2-yl)oxy]propyl}oxy)pyridin-3-yl]-8,9-dimethoxybenzo[c][2,7]naphthyridin-4-amine], 8.40; that for `COc1cc2ncc3c(N)nc(-c4cncc(OC[C@@H](N)COc5ccc(Cl)cn5)c4)cc3c2cc1OC` [Ib-154, 2-[5-({(2R)-2-amino-3-[(5-chloropyridin-2-yl)oxy]propyl}oxy)pyridin-3-yl]-8,9-dimethoxybenzo[c][2,7]naphthyridin-4-amine], 8.40.
As to `COc1cc2ncc3c(N)nc(-c4cncc(OC[C@@H](N)COc5nccs5)c4)cc3c2cc1OC` [Ib-156, 2-(5-{[(2R)-2-amino-3-(1,3-thiazol-2-yloxy)propyl]oxy}pyridin-3-yl)-8,9-dimethoxybenzo[c][2,7]naphthyridin-4-amine], the pIC50 is 8.52.
With `COc1cc2ncc3c(N)nc(-c4cncc(OC[C@@H](N)COc5ccc(CCC#N)cc5)c4)cc3c2cc1OC` [Ib-158, 3-(4-{[(2S)-2-amino-3-{[5-(4-amino-8,9-dimethoxybenzo[c][2,7]naphthyridin-2-yl)pyridin-3-yl]oxy}propyl]oxy}phenyl)propanenitrile], the pIC50 was 7.26.
Still for that read-out and setting: the result for `COc1cc2ncc3c(N)nc(-c4cncc(OC[C@@H](N)CSc5ccccn5)c4)cc3c2cc1OC` [Ib-159, 2-(5-{[(2R)-2-amino-3-(pyridin-2-ylthio)propyl]oxy}pyridin-3-yl)-8,9-dimethoxybenzo[c][2,7]naphthyridin-4-amine] reads 8.52; that for `COc1cc2ncc3c(N)nc(-c4cncc(OC[C@@H](N)CSc5nccn5C)c4)cc3c2cc1OC` [Ib-161, 2-[5-({(2R)-2-amino-3-[(1-methyl-1H-imidazol-2-yl)thio]propyl}oxy)pyridin-3-yl]-8,9-dimethoxybenzo[c][2,7]naphthyridin-4-amine], 8.52.
Same read-out and setting: for `COc1cc2ncc3c(N)nc(-c4cncc(OC[C@@H](N)CSc5ccccc5)c4)cc3c2cc1OC` [Ib-162, 2-(5-{[(2R)-2-amino-3-(phenylthio)propyl]oxy}pyridin-3-yl)-8,9-dimethoxybenzo[c][2,7]naphthyridin-4-amine] the value was 8.40; for `COc1cc2ncc3c(N)nc(-c4cncc(OC[C@@H](N)CSc5ccc(Cl)cc5Cl)c4)cc3c2cc1OC` [Ib-163, 2-[5-({(2R)-2-amino-3-[(2,4-dichlorophenyl)thio]propyl}oxy)pyridin-3-yl]-8,9-dimethoxybenzo[c][2,7]naphthyridin-4-amine], 7.92; for `COc1cc2ncc3c(N)nc(-c4cncc(OC[C@@H](N)CSc5ccncc5)c4)cc3c2cc1OC` [Ib-164, 2-(5-{[(2R)-2-amino-3-(pyridin-4-ylthio)propyl]oxy}pyridin-3-yl)-8,9-dimethoxybenzo[c][2,7]naphthyridin-4-amine], 8.00.
Same read-out and setting: for `COc1cc2ncc3c(N)nc(-c4cncc(OC[C@@H](N)CSc5nccs5)c4)cc3c2cc1OC` [Ib-166, 2-(5-{[(2R)-2-amino-3-(1,3-thiazol-2-ylthio)propyl]oxy}pyridin-3-yl)-8,9-dimethoxybenzo[c][2,7]naphthyridin-4-amine] the value was 8.52.
Consider `COc1cc2ncc3c(N)nc(-c4cncc(OC[C@@H](N)CSc5ncc(CO)n5C)c4)cc3c2cc1OC` [Ib-167, (2-{[(2R)-2-amino-3-{[5-(4-amino-8,9-dimethoxybenzo[c][2,7]naphthyridin-2-yl)pyridin-3-yl]oxy}propyl]thio}-1-methyl-1H-imidazol-5-yl)methanol], for which the pIC50 was 8.30.
Still for that read-out and setting: for `COc1cc2ncc3c(N)nc(-c4cncc(Oc5ncccc5N)c4)cc3c2cc1OC` [Ib-169, 2-{5-[(3-Aminopyridin-2-yl)oxy]pyridin-3-yl}-8,9-dimethoxybenzo[c][2,7]naphthyridin-4-amine] the value was 7.22; for `COc1cc2ncc3c(N)nc(-c4cncc(Oc5ccncc5N)c4)cc3c2cc1OC` [Ib-170, 2-{5-[(3-Aminopyridin-4-yl)oxy]pyridin-3-yl}-8,9-dimethoxybenzo[c][2,7]naphthyridin-4-amine], 6.94.
For the compound `COc1cc2ncc3c(N)nc(-c4cncc(Oc5cccc(N)n5)c4)cc3c2cc1OC` [Ib-171, 2-{5-[(6-Aminopyridin-2-yl)oxy]pyridin-3-yl}-8,9-dimethoxybenzo[c][2,7]naphthyridin-4-amine], the pIC50 was 6.82.
Same read-out and setting: the result for `COc1cc2ncc3c(N)nc(-c4cncc(Oc5ccc(N)nc5)c4)cc3c2cc1OC` [Ib-172, 2-{5-[(6-Aminopyridin-3-yl)oxy]pyridin-3-yl}-8,9-dimethoxybenzo[c][2,7]naphthyridin-4-amine] reads 6.82; that for `COc1cc2ncc3c(N)nc(-c4cncc(Nc5ccccc5C#N)c4)cc3c2cc1OC` [Ib-178, 2-{[5-(4-amino-8,9-dimethoxybenzo[c][2,7]naphthyridin-2-yl)pyridin-3-yl]amino}benzonitrile], 6.98.
Still for that read-out and setting: the result for `COc1cc2ncc3c(N)nc(-c4cncc(Nc5cccc(C#N)c5)c4)cc3c2cc1OC` [Ib-179, 3-{[5-(4-amino-8,9-dimethoxybenzo[c][2,7]naphthyridin-2-yl)pyridin-3-yl]amino}benzonitrile] reads < 6.15.

Source of the values: patent US20080293712A1, “Benzo[C][2,7]Naphtyridine Derivatives, Methods of Making Thereof and Methods of Use Thereof” (WYETH, priority 2007, published 2008).
